From patent US20140275007A1, “OXAMAZIN ANTIBIOTICS” (priority 2013, published 2014) come the findings set out here.

In brackets after ≈: the same amount, converted by molar mass. A value given as a limit tells only on which side of the number the result lay.

What all share (type): cell-based, Escherichia coli
The test system of assay [1] is E. coli strain ECM6716 (pUCP24::OXA-48). In words: MIC, broth microdilution, isogenic E. coli panel, OXA-48 strain. To be noted: for Ratio of MIC vs vector alone: strain ECM6716, pUCP24::OXA-48 vs ECM6704. As to the method: (§1) Potency and spectrum of compound 1 was determined using the panel of isogenic engineered strains, each containing a plasmid carrying a cloned gene expressing a β-lactamase enzyme. The strain that contained the empty vector was included to evaluate the impact of individual β-lactamases on microbiological activity of compound 1 vs comparator antibiotics. The host strain was wild-type strain of Escherichia coli, ECM5497. The vector plasmid was pUCP24. […] MIC was assessed using broth microdilution method as recommended by the NCCLS (National Committee for Clinical Laboratory Standards. Methods for Dilution Antimicrobial Susceptibility Tests for Bacteria that Grow Aerobically—4th Edition. Approved Standard NCCLS Document M7-A4, Vol. 17, No. 2, NCCLS, Wayne, Pa., January 1997). In this assay multiple dilutions of drugs are being tested for the ability to inhibit growth of the test bacterial strains. The MIC assay is performed in microtiter plates. Antibiotics are diluted two-fold in the x axis, each column containing a single concentration of antibiotic. The assay is performed in MHB with a final bacterial inoculum of 5×10^5 CFU/mL (from an early-log phase culture). Microtiter plates are incubated during 20 h at 35° C. and are read using a microtiterplate reader (Molecular Devices) at 650 nm as well as visual observation using a microtiter plate reading mirror.
For orientation: In broth dilution the organism is exposed to a series of concentrations in liquid medium.

Assay [2] deals with E. coli strain ECM6706 (pUCP24::SME-2). In words: MIC, broth microdilution, isogenic E. coli panel, SME-2 strain. Conditions: for Ratio of MIC vs vector alone: strain ECM6706, pUCP24::SME-2 vs ECM6704. The method, then:
as §1

Assay [3] has as its system E. coli strain ECM6704 (pUCP24, vector). In words: MIC, broth microdilution, isogenic E. coli panel, empty vector strain. To be noted: for Ratio of MIC vs vector alone: strain ECM6704, pUCP24, vector (reference strain itself). The method, then:
as §1

The test system of assay [4] is E. coli strain ECM6696 (pUCP24::NMC-A). As to the kind of experiment: MIC, broth microdilution, isogenic E. coli panel, NMC-A strain. To be noted: for Ratio of MIC vs vector alone: strain ECM6696, pUCP24::NMC-A vs ECM6704. As to the method: as §1
Assay [5] relates to E. coli strain ECM6694 (pUCP24::CTX-M-15). As to the kind of experiment: MIC, broth microdilution, isogenic E. coli panel, CTX-M-15 strain. Conditions: for Ratio of MIC vs vector alone: strain ECM6694, pUCP24::CTX-M-15 vs ECM6704. The method, then: as §1
For assay [6], the system named is E. coli strain ECM6703 (pUCP24::NDM-1). In words: MIC, broth microdilution, isogenic E. coli panel, NDM-1 strain. To be noted: for Ratio of MIC vs vector alone: strain ECM6703, pUCP24::NDM-1 vs ECM6704. As to the method: as §1
In assay [7] the test system is E. coli strain ECM6711 (pUCP24::VIM-1). As to the kind of experiment: MIC, broth microdilution, isogenic E. coli panel, VIM-1 strain. To be noted: for Ratio of MIC vs vector alone: strain ECM6711, pUCP24::VIM-1 vs ECM6704. The method, then: as §1
The test system of assay [8] is E. coli strain ECM6713 (pUCP24::TEM-10). In words: MIC, broth microdilution, isogenic E. coli panel, TEM-10 strain. Conditions: for Ratio of MIC vs vector alone: strain ECM6713, pUCP24::TEM-10 vs ECM6704. As to the method: as §1
For assay [9], the system named is E. coli strain ECM6715 (pUCP24::AmpC). As to the kind of experiment: MIC, broth microdilution, isogenic E. coli panel, AmpC strain. Conditions: for Ratio of MIC vs vector alone: strain ECM6715, pUCP24::AmpC vs ECM6704. As to the method: as §1
The subject of assay [10] is E. coli strain ECM6701 (pUCP24::KPC-2). As to the kind of experiment: microbe, parasite or virus in culture. To be noted: for Ratio of MIC vs vector alone: strain ECM6701, pUCP24::KPC-2 vs ECM6704. As to the method: as §1
Assay [11] relates to E. coli strain ECM6718 (pUCP24::SHV-5). As to the kind of experiment: microbe, parasite or virus in culture. Conditions: for Ratio of MIC vs vector alone: strain ECM6718, pUCP24::SHV-5 vs ECM6704. As to the method: as §1
In assay [12] the test system is E. coli strains expressing individual β-lactamases. As to the kind of experiment: Impact of β-lactamases on microbiological activity, whole panel of isogenic engineered strains. The method, then: as §1
Table 2 contains MICs of compound 1 and comparator antibiotics for each test strain and Table 3 contains MIC ratios vs vector only control (strain ECM6704). β-Lactamases present in the test panel belonged to all four currently described classes of enzymes, A, B, C and D. These β-lactamases also represent the major groups of the most relevant enzymes.

[13] abbreviates: strain ECM6706, pUCP24::SME-2, class A, carbapenemase.
Where [14] appears, read: strain ECM6696, pUCP24::NMC-A, class A, carbapenemase.
[15] abbreviates: strain ECM6701, pUCP24::KPC-2, class A, carbapenemase.
The mark [16] stands for this setting: strain ECM6718, pUCP24::SHV-5, class A, ESBL.
Where [17] appears, read: strain ECM6694, pUCP24::CTX-M-15, class A, ESBL.
[18] abbreviates: strain ECM6703, pUCP24::NDM-1, class B.
Where [19] appears, read: strain ECM6711, pUCP24::VIM-1, class B.
The mark [20] stands for this setting: strain ECM6713, pUCP24::TEM-10, class A, ESBL.
Setting [21] is: strain ECM6715, pUCP24::AmpC, class C.

`C[C@H]1[C@H](NC(=O)/C(=N\OC(C)(C)C(=O)O)c2csc(N)n2)C(=O)N1S(=O)(=O)O` [AZTREONAM, aztreonam]: the MIC is 0.125 µg/mL (≈ 0.287 µM) in [1] (Escherichia coli); greater than 64 µg/mL in [2] (Escherichia coli); 0.125 µg/mL (≈ 0.287 µM) in [3] (Escherichia coli, 20 h); 64 µg/mL (≈ 147 µM) in [4] (Escherichia coli); 32 µg/mL (≈ 73.5 µM) in assay [5] (Escherichia coli); no more than 0.06 µg/mL in [6] (Escherichia coli). In addition, the results for the MIC in assay [7] (Escherichia coli), in assay [8] (Escherichia coli) and in assay [9] (Escherichia coli) were no more than 0.06 µg/mL, greater than 64 µg/mL and 8 µg/mL (≈ 18.4 µM), respectively.
On to `NC(=O)OC[C@@H]1[C@H](NC(=O)/C(=N\OCC(=O)O)c2csc(N)n2)C(=O)N1S(=O)(=O)O` [CARUMONAM, carumonam], for which the MIC in assay [1] (Escherichia coli) was no more than 0.06 µg/mL; in assay [2] (Escherichia coli), 0.125 µg/mL (≈ 0.268 µM); in assay [3] (Escherichia coli, 20 h) it was no more than 0.06 µg/mL; in assay [4] (Escherichia coli), 0.25 µg/mL (≈ 0.536 µM); in [10] (Escherichia coli) it was 0.25 µg/mL (≈ 0.536 µM); in assay [11] (Escherichia coli), 2 µg/mL (≈ 4.29 µM). For the same molecule, the MIC was 0.125 µg/mL (≈ 0.268 µM) in assay [5] (Escherichia coli); no more than 0.06 µg/mL in assay [6] (Escherichia coli); no more than 0.06 µg/mL in [7] (Escherichia coli); 4 µg/mL (≈ 8.58 µM) in assay [8] (Escherichia coli); 4 µg/mL (≈ 8.58 µM) in assay [9] (Escherichia coli). In assay [4], the “Ratio of MIC vs vector alone” value is 4 µg/mL.
Take `CC(C)(O/N=C(\C(=O)N[C@@H]1C(=O)N2C(C(=O)[O-])=C(C[n+]3ccccc3)CS[C@H]12)c1csc(N)n1)C(=O)O` [CEFTAZIDIME, ceftazidime]: the MIC was 1 µg/mL (≈ 1.83 µM) in assay [2] (setting [13]); 0.5 µg/mL (≈ 0.915 µM) in assay [4] (setting [14]); 4 µg/mL (≈ 7.32 µM) in assay [10] (setting [15]); 8 µg/mL (≈ 14.6 µM) in assay [11] (setting [16]); 16 µg/mL (≈ 29.3 µM) in assay [5] (setting [17]); greater than 64 µg/mL in [6] (setting [18]). In addition, the MIC is greater than 64 µg/mL in assay [7] (setting [19]), 65 µg/mL (≈ 119 µM) in assay [8] (setting [20]) and 16 µg/mL (≈ 29.3 µM) in [9] (setting [21]).
Regarding `CC1(C)[C@H](NC(=O)/C(=N\OCC(=O)O)c2csc(N)n2)C(=O)N1OCC(=O)O` [Compound 1, (S,Z)-2-(1-(2-aminothiazol-4-yl)-2-(1-(carboxymethoxy)-2,2-dimethyl-4-oxoazetidin-3-ylamino)-2-oxoethylideneaminooxy)acetic acid], the MIC in assay [1] (Escherichia coli) is 2 µg/mL (≈ 4.81 µM); in [2] (Escherichia coli) it was 1 µg/mL (≈ 2.41 µM); in [3] (Escherichia coli, 20 h), 2 µg/mL (≈ 4.81 µM); in assay [4] (Escherichia coli) it was 1 µg/mL (≈ 2.41 µM); in assay [10] (Escherichia coli) it was 1 µg/mL (≈ 2.41 µM); in [11] (Escherichia coli), 4 µg/mL (≈ 9.63 µM). Moreover, the MIC in assay [5] (Escherichia coli) stood at 1 µg/mL (≈ 2.41 µM); in assay [6] (Escherichia coli) it was 1 µg/mL (≈ 2.41 µM); in [7] (Escherichia coli), 1 µg/mL (≈ 2.41 µM); in assay [8] (Escherichia coli), 16 µg/mL (≈ 38.5 µM); in assay [9] (Escherichia coli), 2 µg/mL (≈ 4.81 µM). Moreover, the “Ratio of MIC vs vector alone” value in assay [1] was 1; in assay [2], 0.5; in assay [3], 1; in [4] it was 0.5 µg/mL; in assay [10], 0.5; in assay [11], 2. Also, the “Ratio of MIC vs vector alone” value in assay [5] stood at 0.5; in assay [6], 0.5; in assay [7] it was 0.5; in assay [8] it was 8; in assay [9], 1. Besides, the “Effect of class B or class D enzymes on potency” value in [12] (class B or class D β-lactamases) is listed as “not affected”. Moreover, in assay [12] (majority of class A and class C β-lactamases), the “Effect of the majority of class A and class C enzymes on potency” value is “not affected”. For the same molecule, in assay [12] (whole panel, vs aztreonam, tigemonam, carumonam, ceftazidime), the “Effect of β-lactamases on potency, compared with the other β-lactams tested” value was “least affected”. Also, the “Effect of TEM-10 on activity” value in assay [8] (only enzyme in the panel with an effect, much less than on other monobactams or ceftazidime) was “some effect”.
For the molecule `CC1(C)[C@H](NC(=O)/C(=N\OCC(=O)O)c2csc(N)n2)C(=O)N1OS(=O)(=O)O` [TIGEMONAM, tigemonam], the MIC in assay [1] (strain ECM6716, pUCP24::OXA-48, class D) was determined as 0.25 µg/mL (≈ 0.572 µM); in [2] (setting [13]) it was 0.5 µg/mL (≈ 1.14 µM); in assay [3] (strain ECM6704, plasmid pUCP24, vector, MHB, 20 h at 35° C.) it was 0.25 µg/mL (≈ 0.572 µM); in [4] (setting [14]), 0.5 µg/mL (≈ 1.14 µM); in [10] (setting [15]), 0.5 µg/mL (≈ 1.14 µM); in [11] (setting [16]), 32 µg/mL (≈ 73.2 µM). In addition, the MIC in assay [5] (setting [17]) is 2 µg/mL (≈ 4.57 µM); in assay [6] (setting [18]), 0.25 µg/mL (≈ 0.572 µM); in assay [7] (setting [19]), 0.25 µg/mL (≈ 0.572 µM); in assay [8] (setting [20]) it was greater than 64 µg/mL; in assay [9] (setting [21]), 4 µg/mL (≈ 9.14 µM). In addition, the “Ratio of MIC vs vector alone” value in assay [1] was 2; in [2], 2; in assay [3], 1; in assay [4], 2 µg/mL; in assay [10], 2; in [11] it was 128. Besides, the “Ratio of MIC vs vector alone” value came out at 8 in assay [5]; 2 in assay [6]; 1 in assay [7]; 256 in assay [8]; 16 in [9].
